Reference: article PMC8192780 (2021)

What was measured:
[1] = tested on: Parent Chili (Tr1) (RNA, aptamer) GGCUAGCUGGAGGGGCGCCAGUUCGCUGGUGGUUGGGUGCGGUCGGCUAGCC; experiment: X-ray crystallography; details: K+ 50 mM, Mg2+ 5 mM, 10 mM HEPES pH 8.0, then MES pH 5.4-5.8, spermine, PEG 400
[2] = tested on: Parent Chili (Tr1) (RNA, aptamer) GGCUAGCUGGAGGGGCGCCAGUUCGCUGGUGGUUGGGUGCGGUCGGCUAGCC; experiment: fluorescence activation; details: 40 mM HEPES pH 7.5
[3] = tested on: c7G15 Chili with r4CI at 34 (R3 ligated to R4) (RNA, aptamer, 7-deazaguanine (c7G) at 15; 4-cyanoindole ribonucleoside (r4CI) replaces U34; 3'-phosphate on printed 3' fragment) GGCUAGCUGGAGGGGCGCCAGUUCGCUGGUGGUUGGGUGCGGUCGGCUAGCC; experiment: FRET from r4CI to ligand; details: K+ 125 mM, Mg2+ 5 mM; 40 mM HEPES pH 7.5
[4] = tested on: c7G15 Chili with r4CI at 46 (R3 ligated to R5) (RNA, aptamer, 7-deazaguanine (c7G) at 15; 4-cyanoindole ribonucleoside (r4CI) replaces G46; 3'-phosphate on printed 3' fragment) GGCUAGCUGGAGGGGCGCCAGUUCGCUGGUGGUUGGGUGCGGUCGGCUAGCC; experiment: FRET from r4CI to ligand; details: K+ 125 mM, Mg2+ 5 mM; 40 mM HEPES pH 7.5
[5] = tested on: Chili G15A (Tr12) (RNA, aptamer) GGCUAGCUGGAGGGACGCCAGUUCGCUGGUGGUUGGGUGCGGUCGGCUAGCC; experiment: absorbance and fluorescence; details: K+ 125 mM, Mg2+ 5 mM; 40 mM HEPES pH 7.5; 5 µM RNA and ligand
[6] = tested on: Chili C40U (Tr13) (RNA, aptamer) GGCUAGCUGGAGGGGCGCCAGUUCGCUGGUGGUUGGGUGUGGUCGGCUAGCC; experiment: absorbance and fluorescence; details: K+ 125 mM, Mg2+ 5 mM; 40 mM HEPES pH 7.5; 5 µM RNA and ligand; 30% reduced fluorescence
[7] = tested on: Chili G15A/C40U (Tr14) (RNA, aptamer) GGCUAGCUGGAGGGACGCCAGUUCGCUGGUGGUUGGGUGUGGUCGGCUAGCC; experiment: absorbance and fluorescence; details: K+ 125 mM, Mg2+ 5 mM; 40 mM HEPES pH 7.5; 5 µM RNA and ligand; binding site only partially restored
[8] = tested on: c7G15-modified Chili (R3 ligated to R2) (RNA, aptamer, 7-deazaguanine (c7G) at 15; 3'-phosphate on printed 3' fragment) GGCUAGCUGGAGGGGCGCCAGUUCGCUGGUGGUUGGGUGCGGUCGGCUAGCC; experiment: absorbance and fluorescence; details: K+ 125 mM, Mg2+ 5 mM; 40 mM HEPES pH 7.5; 10 µM RNA and ligand (absorbance)
[9] = tested on: Chili P1-1 (Tr4) (RNA, aptamer) GGCAGCUGGAGGGGCGCCAGUUCGCUGGUGGUUGGGUGCGGUCGGCUGCC; experiment: fluorescence activation; details: K+ 125 mM, Mg2+ 5 mM; 40 mM HEPES pH 7.5; 1 µM RNA and ligand; >80% of parent
[10] = tested on: Chili P1-2 (Tr5) (RNA, aptamer) GGAGCUGGAGGGGCGCCAGUUCGCUGGUGGUUGGGUGCGGUCGGCUCC; experiment: fluorescence activation; details: K+ 125 mM, Mg2+ 5 mM; 40 mM HEPES pH 7.5; 1 µM RNA and ligand; >80% of parent
[11] = tested on: Chili P1-3 (Tr6) (RNA, aptamer) GGACUGGAGGGGCGCCAGUUCGCUGGUGGUUGGGUGCGGUCGGUCC; experiment: fluorescence activation; details: K+ 125 mM, Mg2+ 5 mM; 40 mM HEPES pH 7.5; 1 µM RNA and ligand; >80% of parent
[12] = tested on: Chili P1C (Tr2) (RNA, aptamer) GGCUAGCCGGAGGGGCGCCAGUUCGCUGGUGGUUGGGUGCGGUCGGCUAGCC; experiment: fluorescence activation; details: K+ 125 mM, Mg2+ 5 mM; 40 mM HEPES pH 7.5; 1 µM RNA and ligand; slower maturation than parent
[13] = tested on: Chili P1A (Tr3) (RNA, aptamer) GGCUAGCUGGAGGGGCGCCAGUUCGCUGGUGGUUGGGUGCGGUCAGCUAGCC; experiment: fluorescence activation; details: K+ 125 mM, Mg2+ 5 mM; 40 mM HEPES pH 7.5; 1 µM RNA and ligand; slower maturation than parent
[14] = tested on: circularly permuted Chili aptamer (Tr10) (RNA, aptamer) GGGUGCGGUCAGUCCGGAAGGACUGGAGGGGCGCCAGUUCGCUGGUGGUU; experiment: fluorescence activation; details: K+ 125 mM, Mg2+ 5 mM; 40 mM HEPES pH 7.5; 75% of P1A fluorescence enhancement

| binding ([1]; 2.25 Å) | binding ([2]; Na+ (replaces K+, 125 mM), 25% residual intensity against K+) | binding ([2]; Tl+ (replaces K+, 125 mM), intensity preserved against K+) | binding [3] | binding [4] | binding [5] | binding [6] | binding [7] | binding [8] | binding ([1]; 2.95 Å) | binding [9] | binding [10] | binding [11] | binding [12] | binding [13] | binding [14] | SMILES |
| --- | --- | --- | --- | --- | --- | --- | --- | --- | --- | --- | --- | --- | --- | --- | --- | --- |
| yes | yes | yes | no | no | no | yes | yes | no |  |  |  |  |  |  |  | COc1cc(/C=C2N=C(/C=N/O)N(c3ccc([N+](C)(C)C)cc3)C\2=O)cc(OC)c1O |
|  |  |  |  |  |  |  |  |  | yes | yes | yes | yes | yes | yes | yes | COc1cc(/C=C2\N=C(C)N(c3ccc([N+](C)(C)C)cc3)C2=O)cc(OC)c1O |
